Data reported in patent US4654368A, “Tri-organotin silatrane derivatives and pesticidal compositions, fungicides or antifouling agents comprising said compounds as active ingredients” (Nitto Kasei Co., Ltd., priority 1984, dated 1987).

Key:
[1] = test system: tobacco cutworms (Prodenia litura Fabrficius); assay: Test on insecticidal efficacy on tobacco cutworms; type: in vivo; conditions: 500 ppm in artificial feed, 4th-instar larvae, 6 days; wettable powder of Formulation Example 5 (contains Fenitrothion)
Procedure: A wettable powder of each of compounds Nos. 3, 7, 8, 9, 11, 12, 13, 14, 17, 18 and 31 of the invention obtained in accordance with Formulation Example 5 was diluted with water to 200 times (corresponding to a concentration of 500 ppm). Two milliliters of the dilution was impregnated in 13 g of an artificial feed for tobacco cutworms, and the feed was put in a polyethylene cup having a diameter of 11 cm. Ten 4th-instar larvae of tobacco cutworms were released into the cup, and examined for mortality 6 days later. The above experiment was carried out through two replicates.

[2] = test system: carmine mites (Tetranychus telarius L.); assay: Miticidal effect on carmine mites; type: in vivo; design: key: -: Hardly any injury was observed.; +: Some injury was observed.; ++: The same injury as in the non-treated area was noted; conditions: 500 ppm active ingredient, spray plus soil, kidney beans, 8 days later
Procedure: Female imagoes of carmine mites were caused to live at a rate of 10 per leaf on bineless kidney beans (in the primary leaf stage) in pots 7 days after sowing, and kept in a constant temperature chamber at 25° C. Six days later, a chemical obtained by diluting a wettable powder of each of compounds Nos. 4-6, 9-13, 15, 16, 21, 22, 25, 28-30, 33, 34, 36, 37 and 38 with water to an active ingredient concentration of 500 ppm was sprayed at a rate of 10 ml per pot, and at the same time, 2 ml of the chemical was poured into the soil. Eight days later, injuries to the plants by the mites were examined.
The degree of injury is shown by -, + and ++ as follows: […]

Plasmopara viticola = assay: Test on fungicidal effect on downy mildew of grape; type: in vivo; conditions: sprayed on grape seedlings
Text: Sandy soil was filled in plastic pots, and seeds of grape (variety: Neomuscat) were sown, and grown for about 1 month in a greenhouse to obtain young seedlings of grape in the 2-3 leaf stage. A water dilution of an emulsifiable concentrate of a wettable powder of each of the test compounds was sprayed onto the leaves of these seedlings so that the chemical adhered fully to the surfaces of the leaves. After drying the chemical in air, a suspension of conidospores of a […] pathogen of grape (Plasmopara viticola) was inoculated in the seedling by spraying. The seedlings were placed for 2 days in a high humidity condition at 23° C., and subsequently cultivated for 14 days in a greenhouse kept at 20° to 25° C. to cause onset of the disease. Thereafter, the state of the disease was observed.
The degree of disease was calculated by the following method. The examined leaves were classified by indices of 0, 0.5, 1, 2 and 4 according to the degrees of appearance of lesions, and the degree of disease was calculated from the following equation.
0: No fungus colony or lesion was noted on the surface of the leaves.
The control index was calculated from the following equation. [formula]

[3] = test system: Aspergillus niger ATCC 6275; assay: Test on fungicidal effect on fungi (agar medium diluting method); type: cell-based; conditions: PDA, 27° C., cultivation period 4 days
Procedure: (§1) By an agar medium diluting method, the fungicidal activities of compounds Nos. 12, 17, 18, 23, 24, 26, 27 and 32 of the invention on fungi doing harm to industrial products and materials were examined.
(§2) A hypha piece, 5 mm in diameter, of each of the fungi indicated in Table 3 was inoculated in a potato dextrose agar medium (PDA) containing each of the above compounds, and cultivated at 27° C. After the lapse of a predetermined period, the growth state of the fungus was observed, and the minimum inhibitory concentration of the compound was determined.

[4] = test system: Penicillium citrinum ATCC 9849; assay: as above; type: cell-based; conditions: PDA, 27° C., cultivation period 4 days
Procedure: as §1, §2

[5] = test system: Caetomium globosum ATCC 6205; assay: as above; type: cell-based; conditions: PDA, 27° C., cultivation period 3 days (compound 18: 4 days)
Procedure: as §1, §2

[6] = test system: Cladosporium herbarum TAMF 517; assay: as above; type: cell-based; conditions: PDA, 27° C., cultivation period 4 days
Procedure: as §1, §2

[7] = test system: marine animals and plants; assay: Test on antifouling effects on marine animals and plants in the sea; type: in vivo; conditions: antifouling paint on vinyl chloride plate, Owase Bay
Procedure: A ship bottom antifouling paint was prepared by adding 24 g of Rosin WW, 12 g of a vinyl copolymer, 4 g of tricresyl phosphate, 10 g of bentonite, 20 g of baryta, 20 g of red iron oxide, 35 g of xylene and 35 g of methyl isobutyl ketone to 40 g of each of compounds Nos. 2, 8, 14, 17, 20 and 32 of the invention and vigorously stirring the mixture at room temperature for 1 hour. The paint was coated on both surfaces of a rigid vinyl chloride resin plate, 17×9×0.3 cm in size, to a dry thickness of about 200 microns. The coated plate was submerged in the sea in Owase Bay, Mie Prefecture, Japan for 12 months, and its fouled state was regularly observed.
The symbols in the table show the following.

Culex pipiens = assay: Test on insecticidal effect on Culex pipiens; type: in vivo; conditions: 3.5 ppm, wettable powder of Formulation Example 5 (contains Fenitrothion); for Death rate: final-instar larvae, next day, 1440 min; for Emergence inhibition rate: when all larvae in non-treated area emerged
Procedure: A wettable powder of each of compounds Nos. 2, 7, 8, 11, 13, 14, 17, 18 and 31 obtained in accordance with Formulation Example 5 was diluted with water to 3.5 ppm. One hundred milliliters of the dilution was put in each of 180 ml. polyethylene cups and 20 final-instar larvae of Culex pipiens were released into the cup. On the next day, the larvae were examined for mortality.
Thereafter, feeds were added to the test areas, and when all larvae n the non-treated area emerged, the emergence inhibition rate was examined.
The death rate and the emergence inhibition rate were rated by three grades as follows: […]

Structure (SMILES): CCC[CH2][Sn]([CH2]CCC)([CH2]CCC)[S]CCC[Si]12OC(C)CN(CC(C)O1)CC(C)O2 (stereo not shown) [compound 12]
- Death rate [1]: 100%
- Degree of injury [2]: -
- Control index (Plasmopara viticola; 12.5 ppm active ingredient): 100%
- Control index (Plasmopara viticola; 50 ppm active ingredient): 100%
- Control index (Plasmopara viticola; 200 ppm active ingredient): 100%
- Minimum inhibitory concentration [3]: < 12.5 ppm
- Minimum inhibitory concentration [4]: < 12.5 ppm
- Minimum inhibitory concentration [5]: < 12.5 ppm
- Minimum inhibitory concentration [6]: < 12.5 ppm

Structure (SMILES): CC[CH2][Sn]([CH2]CC)([CH2]CC)[S]CCC[Si]12OCCN(CCO1)CCO2 [compound 17]
- Death rate [1]: 100%
- Fouled state, period of submerging 4 months [7]: .circle.
- Fouled state, period of submerging 8 months [7]: .circle.
- Fouled state, period of submerging 12 months [7]: .circle.
- Death rate (Culex pipiens): C (less than 10%)
- Emergence inhibition rate (Culex pipiens): A (90% or higher)
- Minimum inhibitory concentration [3]: < 2.5 ppm
- Minimum inhibitory concentration [4]: < 2.5 ppm
- Minimum inhibitory concentration [5]: < 2.5 ppm
- Minimum inhibitory concentration [6]: < 12.5 ppm

Structure (SMILES): CC[CH2][Sn]([CH2]CC)([CH2]CC)[S]CCC[Si]12OC(C)CN(CC(C)O1)CC(C)O2 (stereo not shown) [compound 18]
- Death rate [1]: 100%
- Death rate (Culex pipiens): B (less than 90% to 10%)
- Emergence inhibition rate (Culex pipiens): A (90% or higher)
- Minimum inhibitory concentration [3]: < 2.5 ppm
- Minimum inhibitory concentration [4]: < 12.5 ppm
- Minimum inhibitory concentration [5]: < 12.5 ppm
- Minimum inhibitory concentration [6]: < 12.5 ppm

Structure (SMILES): CC[CH2][Sn]([CH2]CC)([CH2]CC)[S]CCC[Si]12OCCN(CC(CC)O1)CC(CC)O2 (stereo not shown) [compound 23]
- Minimum inhibitory concentration [3]: < 2.5 ppm
- Minimum inhibitory concentration [4]: < 2.5 ppm
- Minimum inhibitory concentration [5]: < 2.5 ppm
- Minimum inhibitory concentration [6]: < 2.5 ppm

Structure (SMILES): CCC[CH2][Sn]([CH2]CCC)([CH2]CCC)[S]CCC[Si]12OCCN(CCO1)CC(C)O2 (stereo not shown) [compound 24]
- Minimum inhibitory concentration [3]: < 12.5 ppm
- Minimum inhibitory concentration [4]: < 12.5 ppm
- Minimum inhibitory concentration [5]: < 12.5 ppm
- Minimum inhibitory concentration [6]: < 12.5 ppm

Structure (SMILES): CC(C)[CH2][Sn]([CH2]C(C)C)([CH2]C(C)C)[S]CCC[Si]12OCCN(CCO1)CCO2 [compound 26]
- Minimum inhibitory concentration [3]: < 12.5 ppm
- Minimum inhibitory concentration [4]: < 12.5 ppm
- Minimum inhibitory concentration [5]: < 12.5 ppm
- Minimum inhibitory concentration [6]: < 12.5 ppm

Structure (SMILES): CC(C)[CH2][Sn]([CH2]C(C)C)([CH2]C(C)C)[S]CCC[Si]12OC(C)CN(CC(C)O1)CC(C)O2 (stereo not shown) [compound 27]
- Minimum inhibitory concentration [3]: < 12.5 ppm
- Minimum inhibitory concentration [4]: < 12.5 ppm
- Minimum inhibitory concentration [5]: < 12.5 ppm
- Minimum inhibitory concentration [6]: < 12.5 ppm

Structure (SMILES): CCC1CN2CC(C)O[Si](CCC[S][Sn]([c]3ccccc3)([c]3ccccc3)[c]3ccccc3)(OC(C)C2)O1 (stereo not shown) [compound 32]
- Fouled state, period of submerging 4 months [7]: .circle.
- Fouled state, period of submerging 8 months [7]: .circle.
- Fouled state, period of submerging 12 months [7]: .circle.
- Minimum inhibitory concentration [3]: < 12.5 ppm
- Minimum inhibitory concentration [4]: < 12.5 ppm
- Minimum inhibitory concentration [5]: < 12.5 ppm
- Minimum inhibitory concentration [6]: < 12.5 ppm
